The subject of test [1] is IPOHE (Ipomoea hederacea, ivyleaf morningglory). The test can be described thus: Postemergence foliar-applied mixtures, direct seeded rice, greenhouse. Conditions: post-emergence, 480 h. Format: in vivo, Ipomoea hederacea Jacq. From the text: Seeds or nutlets of the desired test plant species were planted in a soil matrix prepared by mixing a loam or sandy loam soil (e.g., 28.6 percent silt, 18.8 percent clay, and 52.6 percent sand, with a pH of about 5.8 and an organic matter content of about 1.8 percent) and calcareous grit in an 80 to 20 ratio. The soil matrix was contained in plastic pots with a volume of 1 quart and a surface area of 83.6 square centimeters (cm^2). When required to ensure good germination and healthy plants, a fungicide treatment and/or other chemical or physical treatment was applied. The plants were grown for 8-22 days in a greenhouse with an approximate 14 h photoperiod which was maintained at about 29° C. during the day and 26° C. during the night. Nutrients (Peters Excel® 15-5-15 5-Ca 2-Mg and iron chelate) were applied in the irrigation solution as needed and water was added on a regular basis. Supplemental lighting was provided with overhead metal halide 1000-Watt lamps as necessary. The plants were employed for testing when they reached the first through fourth true leaf stage.
Treatments consisted of the acid or esters of 4-amino-3-chloro-5-fluoro-6-(4-chloro-2-fluoro-3-methoxy-phenyl) pyridine-2-carboxylic acid (Compound A), each formulated as an SC (suspension concentrate), and various herbicidal components alone and in combination. Forms of compound A were applied on an acid equivalent basis.
Other herbicidal components were applied on an active ingredient basis and included Photosystem II (PSII)-inhibiting herbicides propanil formulated as Stam® M4 EC, bentazon-sodium formulated as Basagran®, atrazine formulated as Atrazine 90 WDG, bromoxynil octanoate ester formulated as Buctril®, simetryne (technical grade material), simazine formulated as Princep® Caliber 90, ioxynil (technical grade material), cyanazine (technical grade material), and hexazinone (technical grade material).
Treatment requirements were calculated based upon the rates being tested, the concentration of active ingredient or acid equivalent in the formulation, and a 12 mL application volume at a rate of 187 L/ha.
For treatments comprised of formulated compounds, measured amounts of compounds were placed individually in 25 mL glass vials and diluted in a volume of 1.25% (v/v) Agri-Dex® crop oil concentrated to obtain 12× stock solutions. […] Application solutions were prepared by adding an appropriate amount of each stock solution (e.g., 1 mL) and diluted to the appropriate final concentrations with the addition of 10 mL of an aqueous mixture of 1.25% (v/v) crop oil concentrate so that the final spray solutions contained 1.25+/−0.05% (v/v) crop oil concentrate.
For treatments comprised of technical compounds, weighed amounts can be placed individually in 25 mL glass vials and dissolved in a volume of 97:3 v/v acetone/DMSO to obtain 12× stock solutions. […] Application solutions can be prepared by adding an appropriate amount of each stock solution (e.g., 1 mL) and diluted to the appropriate final concentrations with the addition of 10 mL of an aqueous mixture of 1.5% (v/v) crop oil concentrate so that the final spray solutions contain 1.25% (v/v) crop oil concentrate. When technical materials are used, the concentrated stock solutions can be added to the spray solutions so that the final acetone and DMSO concentrations of the application solutions are 16.2% and 0.5%, respectively.
For treatments comprised of formulated and technical compounds, weighed amounts of the technical materials were placed individually in 25 mL glass vials and dissolved in a volume of 97:3 v/v acetone/DMSO to obtain 12× stock solutions, and measured amounts of the formulated compounds were placed individually in 25 mL glass vials and diluted in a volume of 1.5% (v/v) crop oil concentrate or water to obtain 12× stock solutions. […]

The test system of test [2] is ECHOR (Echinochloa oryzoides, early watergrass). The test can be described thus: In-water applied mixtures, transplanted paddy rice, greenhouse. Format: in vivo, Echinochloa oryzoides (Ard.) Fritsch. Particulars: 70 g ae/ha; 20 DAA. Here is the method: (§1) Weed seeds or nutlets of the desired test plant species were planted in puddled soil (mud) prepared by mixing a shredded, non-sterilized mineral soil (50.5 percent silt, 25.5 percent clay, and 24 percent sand, with a pH of about 7.6 and an organic matter content of about 2.9 percent) and water at a 1:1 volumetric ratio. The prepared mud was dispensed in 365 mL aliquots into 16-ounce (oz.) non-perforated plastic pots with a surface area of 86.59 square centimeters (cm^2) leaving a headspace of 3 centimeters (cm) in each pot Mud was allowed to dry overnight prior to planting or transplanting. Rice seeds were planted in Sun Gro MetroMix® 306 planting mixture, which typically has a pH of 6.0 to 6.8 and an organic matter content of about 30 percent, in plastic plug trays. Seedlings at the second or third leaf stage of growth were transplanted into 840 mL of mud contained in 32-oz. non-perforated plastic pots with a surface area of 86.59 cm^2 4 days prior to herbicide application. The paddy was created by filling the headspace of the pots with 2.5 to 3 cm of water. When required to ensure good germination and healthy plants, a fungicide treatment and/or other chemical or physical treatment was applied. The plants were grown for 4-22 days in a greenhouse with an approximate 14 h photoperiod which was maintained at about 29° C during the day and 26° C. during the night. Nutrients were added as Osmocote® (19:6:12, N:P:K+ minor nutrients) at 2 g per 16-oz. pot and 4 g per 32-oz. pot. Water was added on a regular basis to maintain the paddy flood, and supplemental lighting was provided with overhead metal halide 1000-Watt lamps as necessary. The plants were employed for testing when they reached the first through fourth true leaf stage.
(§2) Treatments consisted of the acid or esters of 4-amino-3-chloro-5-fluoro-6-(4-chloro-2-fluoro-3-methoxy-phenyl)pyridine-2-carboxylic acid (compound A) each formulated as an SC (suspension concentrate) and various herbicidal components alone and in combination. Forms of compound A were applied on an acid equivalent basis.
(§3) Other herbicidal components were applied on an active ingredient basis and included photosystem II (PSII)-inhibits propanil formulated as […] bentazon-sodium formulated as Basagran®, and simetryne (technical grade material).
(§4) Treatment requirements for each compound or herbicidal component were calculated based upon the rates being tested, the concentration of active ingredient or acid equivalent in the formulation, an application volume of 2 mL per component per pot, and an application area of 86.59 cm^2 per pot.
(§5) For formulated compounds, a measured amount was placed in an individual 100 or 200 mL glass vial and was dissolved in a volume of 1.25% (v/v) Agri-Dex® crop oil concentrate to obtain application solutions.
(§6) For technical grade compounds, a weighed amount was placed in an individual 100 to 200 mL glass vial and was dissolved in a volume of acetone to obtain concentrated stock solutions. […] The concentrated stock solutions obtained were diluted with an equivalent volume of an aqueous mixture containing 2.5% (v/v) crop oil concentrate so that the final application solutions contained 1.25% (v/v) crop oil concentrate.
(§7) Applications were made by injecting with a pipetter appropriate amounts of the application solutions, individually and sequentially, into the aqueous layer of the paddy. Control plants were treated in the same manner with the solvent blank. Applications were made so that all treated plant material received the same concentrations of acetone and crop oil concentrate.
(§8) The treated plants and control plants were placed in a greenhouse as described above and water was added as needed to maintain a paddy flood. After approximately 3 weeks the condition of the test plants as compared with that of the untreated plants was determined visually and scored on a scale of 0 to 100 percent where 0 corresponds to no injury or growth inhibition and 100 corresponds to complete kill. […]

Test [3] has as its system SCPMA (Schoenoplectus maritimus, sea clubrush). The test is described as above. The class given is in vivo, Schoenoplectus maritimus (L.) Lye. Particulars: 20 DAA. How it is done:
as §1, §2, §3, §4, §5, §6, §7, §8

For `CCCCOC(=O)c1nc(-c2ccc(Cl)c(OC)c2F)c(F)c(N)c1Cl` [Compound A n-Butyl Ester], the pest or weed control at 16 g/ha in test [1] (read-out: Visual Weed Control (%) Obs, 16 g ae/ha, 20 DAA) came out at 15%. Besides, the pest or weed control at 17.5 g/ha in test [1] (read-out: Visual Weed Control (%) Obs, 17.5 g ae/ha, 20 DAA) was 48%. Also, the results for the “Visual Weed Control (%) Obs” value in test [2], in test [3] (35 g ae/ha) and in test [3] (70 g ae/ha) were 40%, 0% and 0%, respectively.

These data come from patent US8912121B2, “Herbicidal compositions comprising 4-amino-3-chloro-5-fluoro-6-(4-chloro-2-fluoro-3-methoxyphenyl)pyridine-2-carboxylic acid or a derivative thereof and certain PS II inhibitors” (Dow Agrosciences LLC, priority 2012, dated 2014).
